Laboratory results published in patent US12371748B2, “Genetic markers for predicting responsiveness to therapy with HDL-raising or HDL mimicking agent” (Hoffmann-La Roche Inc., priority 2014, dated 2025).

Tested on: patients recently hospitalized for an Acute Coronary Syndrome (ACS)
Experiment: dal-OUTCOMES pharmacogenomic study: cardiovascular events by ADCY9 genotype (Cox proportional hazards)
Format: in vivo, human
Parameters: key to Responsiveness to treatment: NR = non-responsive; PR = partially responsive; R = responsive
Details: for HR, dal-OUTCOMES: per copy of minor allele; for Hazard ratio (dal vs placebo): time to events
Protocol: Dal-OUTCOMES trial (NC20971) was a double blind, randomized, placebo-controlled, parallel group, multi-center, phase III study to assess the safety and efficacy of the CETP inhibitor dalcetrapib in patients recently hospitalized for an Acute Coronary Syndrome (ACS). At time of the interim analysis the study included 15871 randomized patients, distributed over two treatment arms: placebo (7933 patients) and dalcetrapib (600 mg daily; 7938 patients). […] The dal-OUTCOMES study details can be found in G. Schwartz et al., N. Engl. J. Med. 367; 22, 2012.
dal-Outcomes patients were recruited 4 to 12 weeks following hospitalization for acute coronary syndrome characterized by elevated cardiac biomarkers, with symptoms of acute myocardial ischemia, ischemic electrocardiographic abnormalities that were new or presumed to be new, or loss of viable myocardium on imaging. Patients without elevated cardiac biomarkers were eligible to participate if symptoms of acute myocardial ischemia were accompanied by electrocardiographic changes that were new or presumed to be new and by additional evidence of obstructive coronary disease. (Schwartz G G et al. Am Heart J 2009; 158:896-901 e3).
All patients were following individualized programs to target LDL cholesterol levels of 100 mg per deciliter (2.6 mmol per liter) or lower by statin if tolerated and diet. No specific statin agent was specified, and patients were not excluded based on LDL cholesterol values. Patients with serum triglyceride levels of 400 mg per deciliter (4.5 mmol per liter) or higher were excluded. (Schwartz G G et al. N Engl J Med 2012; 367:2089-99) Eligible participants to the dal-Outcomes trial entered a single-blind placebo run-in period of approximately 4 to 6 weeks to allow for patients to stabilise and for completion of planned revascularisation procedures. At the end of the run-in period, eligible patients in stable condition were randomised in a 1:1 ratio to 600 mg of dalcetrapib or placebo on top of evidence-based medical care for acute coronary syndrome. Cardiovascular events were adjudicated by an independent clinical endpoint committee. For the pharmacogenomics study, 6338 patients were recruited from April 2008 through July 2010 at 461 sites in 14 countries and provided written informed consent to participate to the genetic study of the dal-OUTCOMES trial. DNA was extracted from whole blood. Following genomic data cleanup, samples from 5749 Caucasian patients were used for the discovery genome-wide association study (GWAS).
The Illumina Infinium HumanOmni2.5Exome-8v1_A BeadChip including 2,567,845 genetic variants (Illumina, San Diego, California) was used for the discovery GWAS of 5749 Caucasian participants to the dal-OUTCOMES study. The chromosome 16 region including 5 genes upstream and downstream of the adenylate cyclase type 9 (ADCY9) gene (CHR16: 3,400,000-4,600,000) was imputed using IMPUTE2, providing 17,764 variants for analysis with an average completion rate of 99.76%. A Sequenom panel was used for the confirmation of imputed single nucleotide polymorphisms (SNPs) in the ADCY9 gene identified in dal-OUTCOMES and were tested in the dal-PLAQUE-2 study, including 20 SNPs with P values<0.05 from the discovery GWAS.
Genome-wide association study (GWAS)—Genome-wide genotyping was performed using 200 ng of genomic DNA in GLP-environment at the Beaulieu-Saucier Pharmacogenomics Centre (Montreal, Canada). The Illumina Infinium HumanOmni2.5Exome-8v1_A BeadChip (Illumina, San Diego, CA) including 2,567,845 genomic markers was used and processed according to the manufacturer's specifications. This chip includes over 200,000 exome variants identified through the Exome Chip Consortium. The remaining BeadChip content is a mix of rare and common SNPs from the 1000 Genome Project designed to be maximally informative for diverse world populations. Each BeadChip was scanned and analyzed using the Illumina iScan Reader. […]

SMILES: CCC(CC)CC1(C(=O)Nc2ccccc2SC(=O)C(C)C)CCCCC1 [dalcetrapib, thioisobutyric acid S-(2-{[1-(2-ethyl-butyl)-cyclohexanecarbonyl]-amino}-phenyl) ester]
- HR, association of rs2238448 with events in dal-OUTCOMES (dalcetrapib arm, genetic effect): 0.67
- Patients with events (dalcetrapib arm, rs1967309 AA): 38
- Patients without events (dalcetrapib arm, rs1967309 AA): 447
- Patients with events (dalcetrapib arm, rs1967309 AG): 176
- Patients without events (dalcetrapib arm, rs1967309 AG): 1203
- Patients with events (dalcetrapib arm, rs1967309 GG): 176
- Patients without events (dalcetrapib arm, rs1967309 GG): 802
- HR, dal-OUTCOMES (rs1967309, Cox additive genetic model): 0.651
- HR, dalcetrapib compared to placebo, coronary revascularizations removed from the endpoint (rs1967309 AA): 0.60
- Responsiveness to treatment (rs1967309 AA): R
- reduction in pre-specified composite endpoint with dalcetrapib compared to placebo (rs1967309 AA (n=961)): 39%
- HR, composite endpoint, dalcetrapib compared to placebo (rs1967309 AA (n=961), discovery cohort): 0.61
- Hazard ratio (dal vs placebo) (rs1967309 AA): 0.625
- Responsiveness to treatment (rs1967309 AG): PR
- Hazard ratio (dal vs placebo) (rs1967309 AG): 0.953
- Responsiveness to treatment (rs1967309 GG): NR
- increase in cardiovascular events, dalcetrapib versus placebo (rs1967309 GG (n=1984)): 27%
- HR, cardiovascular events, dalcetrapib versus placebo (rs1967309 GG (n=1984), discovery cohort): 1.27
- Hazard ratio (dal vs placebo) (rs1967309 GG): 1.248
- response to dalcetrapib in words (rs1967309 heterozygous AG): intermediate response
- HR, cardiovascular events, dalcetrapib versus placebo (rs1967309 heterozygous AG (n=2796), discovery cohort): 0.94
- HR, dal-OUTCOMES (rs2238448, Cox additive genetic model): 0.671
- Responsiveness to treatment (rs2238448 CC): NR
- Hazard ratio (dal vs placebo) (rs2238448 CC): 1.291
- Responsiveness to treatment (rs2238448 CT): PR
- Hazard ratio (dal vs placebo) (rs2238448 CT): 0.974
- Responsiveness to treatment (rs2238448 TT): R
- Hazard ratio (dal vs placebo) (rs2238448 TT): 0.657
- HR, dal-OUTCOMES (rs2239310, Cox additive genetic model): 0.674
- Responsiveness to treatment (rs2239310 AA): NR
- Hazard ratio (dal vs placebo) (rs2239310 AA): 1.150
- Responsiveness to treatment (rs2239310 AG): PR
- Hazard ratio (dal vs placebo) (rs2239310 AG): 0.971
- Responsiveness to treatment (rs2239310 GG): R
- Hazard ratio (dal vs placebo) (rs2239310 GG): 0.623
- HR, dal-OUTCOMES (rs2283497, Cox additive genetic model): 0.766
- Responsiveness to treatment (rs2283497 GG): NR
- Hazard ratio (dal vs placebo) (rs2283497 GG): 1.226
- Responsiveness to treatment (rs2283497 GT): PR
- Hazard ratio (dal vs placebo) (rs2283497 GT): 0.999
- Responsiveness to treatment (rs2283497 TT): R
- Hazard ratio (dal vs placebo) (rs2283497 TT): 0.581
- HR, dal-OUTCOMES (rs2531967, Cox additive genetic model): 0.734
- Responsiveness to treatment (rs2531967 AA): R
- Hazard ratio (dal vs placebo) (rs2531967 AA): 0.786
- Responsiveness to treatment (rs2531967 AG): PR
- Hazard ratio (dal vs placebo) (rs2531967 AG): 0.855
- Responsiveness to treatment (rs2531967 GG): NR
- Hazard ratio (dal vs placebo) (rs2531967 GG): 1.121
- HR, dal-OUTCOMES (rs2531971, Cox additive genetic model): 0.664
- Responsiveness to treatment (rs2531971 AA): R
- Hazard ratio (dal vs placebo) (rs2531971 AA): 0.660
- Responsiveness to treatment (rs2531971 AC): PR
- Hazard ratio (dal vs placebo) (rs2531971 AC): 0.965
- Responsiveness to treatment (rs2531971 CC): NR
- Hazard ratio (dal vs placebo) (rs2531971 CC): 1.254
- HR, dal-OUTCOMES (rs3730119, Cox additive genetic model): 0.763
- Responsiveness to treatment (rs3730119 AA): R
- Hazard ratio (dal vs placebo) (rs3730119 AA): 0.472
- Responsiveness to treatment (rs3730119 AG): PR
- Hazard ratio (dal vs placebo) (rs3730119 AG): 0.887
- Responsiveness to treatment (rs3730119 GG): NR
- Hazard ratio (dal vs placebo) (rs3730119 GG): 1.059
- HR, dal-OUTCOMES (rs4786454, Cox additive genetic model): 0.668
- Responsiveness to treatment (rs4786454 AA): R
- Hazard ratio (dal vs placebo) (rs4786454 AA): 0.573
- Responsiveness to treatment (rs4786454 AG): PR
- Hazard ratio (dal vs placebo) (rs4786454 AG): 0.91
- Responsiveness to treatment (rs4786454 GG): NR
- Hazard ratio (dal vs placebo) (rs4786454 GG): 1.062
- HR, dal-OUTCOMES (rs8049452, Cox additive genetic model): 1.413
- Responsiveness to treatment (rs8049452 CC): R
- Hazard ratio (dal vs placebo) (rs8049452 CC): 0.804
- Responsiveness to treatment (rs8049452 CT): PR
- Hazard ratio (dal vs placebo) (rs8049452 CT): 0.971
- Responsiveness to treatment (rs8049452 TT): NR
- Hazard ratio (dal vs placebo) (rs8049452 TT): 1.543
- HR, dal-OUTCOMES (rs8061182, Cox additive genetic model): 1.343
